Results taken from patent publication EP0565593B1, “REDUCING PESTICIDAL INTERACTIONS IN CROPS” (priority 1990, dated 1992).
Like-named read-outs stand apart in the source and are kept apart here.

Experiments:
[1] = tested on: Corn; conditions: […]
[2] = tested on: Corn
[3] = tested on: Giant foxtail (GIFT); assay: whole plant or invertebrate; type: in vivo
[4] = tested on: Shattercane (SHCA); type: in vivo; conditions: […]
[5] = tested on: Velvetleaf (VELE); type: in vivo, Abutilon theophrasti; conditions: […]
[6] = tested on: Velvetleaf (VELE); assay: whole plant or invertebrate; type: in vivo, Abutilon theophrasti
[7] = observed 8 days later (Table 32)
[8] = observed 8 days later (Table 33)
[9] = […], PPI, 14 days after PPI (Table 34)
[10] = antidote number given but rate '-' (Table 33)
[11] = […], antidote number given but rate '-', 14 days after PPI (Table 34)
[12] = observed 9 days later (Table 29)
[13] = observed 9 days later (Table 30)
[14] = […], PPI, 13 days after PPI (Table 31)
[15] = observed 7 days after POE (Table 35)
[16] = observed 7 days after POE (Table 36)

| Compound | % Inhibition Corn [1, 7] [%] | % Inhibition Corn [1, 8] [%] | % Inhibition Corn [2, 9] [%] | % Inhibition GIFT [3, 9] [%] | % Inhibition SHCA [4, 7] [%] | % Inhibition SHCA [4, 8] [%] | % Inhibition VELE [5, 7] [%] | % Inhibition VELE [5, 8] [%] | % Inhibition VELE [6, 9] [%] | % Inhibition Corn [1, 12] [%] | % Inhibition Corn [1, 13] [%] | % Inhibition Corn [2, 14] [%] | % Inhibition GIFT [3, 14] [%] | % Inhibition SHCA [4, 12] [%] | % Inhibition SHCA [4, 13] [%] | % Inhibition VELE [5, 12] [%] | % Inhibition VELE [5, 13] [%] | % Inhibition VELE [6, 14] [%] | further results |
| --- | --- | --- | --- | --- | --- | --- | --- | --- | --- | --- | --- | --- | --- | --- | --- | --- | --- | --- | --- |
| NC(=S)COC(c1ccccc1)c1ccccc1 [compound 46] | 50 | 55 | 65 | 60 | 70 | 25 | 90 | 70 | 85 | – | – | – | – | – | – | – | – | – | – |
| CC(C)(C#N)OC(=O)COC(c1ccccc1)c1ccccc1 [compound 59] | 15 | – | – | – | 80 | – | 85 | – | – | – | – | – | – | – | – | – | – | – | % Inhibition Corn [1, 10]: 0%; % Inhibition Corn [2, 11]: 0%; % Inhibition GIFT [3, 11]: 30%; % Inhibition SHCA [4, 10]: 0%; % Inhibition VELE [5, 10]: 0%; % Inhibition VELE [6, 11]: 20% |
| O=C(C(Cl)Cl)N1CCc2ccccc2C1c1ccccc1 (stereo not drawn) [compound 40] | – | – | – | – | – | – | – | – | – | 45 | 35 | 60 | 70 | 85 | 40 | 90 | 70 | 85 | – |
| Cn1cccc1C1CN(C(=O)C(Cl)Cl)C(C)(C)O1 (stereo not drawn) [compound 35] | – | – | – | – | – | – | – | – | – | 20 | 35 | 40 | 70 | 75 | 30 | 90 | 65 | 80 | – |
| CC1Cc2ccccc2C(C)N1C(=O)C(Cl)Cl (stereo not drawn) [compound 26] | – | – | – | – | – | – | – | – | – | 40 | 50 | 65 | 75 | 70 | 35 | 90 | 75 | 80 | – |
| CCCOC(=O)COC(c1ccccc1)c1ccccc1 [compound 47] | 25 | 50 | 60 | 65 | 75 | 30 | 85 | 75 | 85 | – | – | – | – | – | – | – | – | – | – |
| CNC(=O)COC(c1ccccc1)c1ccccc1 [compound 42] | 70 | 60 | 75 | 70 | 75 | 30 | 90 | 70 | 90 | – | – | – | – | – | – | – | – | – | – |
| Cc1ccc(SC2(C#N)CC2)cc1C [compound 73] | – | – | – | – | – | – | – | – | – | – | – | – | – | – | – | – | – | – | % Inhibition Corn [1, 15]: 70%; % Inhibition Corn [1, 16]: 70%; % Inhibition Corn ([2]; in vivo): 70%; % Inhibition GIFT ([3]; in vivo): 90%; % Inhibition SHCA [4, 15]: 70%; % Inhibition SHCA [4, 16]: 35%; % Inhibition VELE [5, 15]: 75%; % Inhibition VELE [5, 16]: 70%; % Inhibition VELE ([6]; in vivo): 90% |
| CCCCOC(=O)c1sc(Cl)nc1C(F)(F)F [compound 61] | – | – | – | – | – | – | – | – | – | – | – | – | – | – | – | – | – | – | % Inhibition Corn [1, 15]: 35%; % Inhibition Corn [1, 16]: 55%; % Inhibition Corn ([2]; in vivo): 60%; % Inhibition GIFT ([3]; in vivo): 70%; % Inhibition SHCA [4, 15]: 65%; % Inhibition SHCA [4, 16]: 35%; % Inhibition VELE [5, 15]: 75%; % Inhibition VELE [5, 16]: 65%; % Inhibition VELE ([6]; in vivo): 90% |
| O=C(COC(c1ccccc1)c1ccccc1)OCC(F)(F)F [compound 48] | 20 | 45 | 30 | 60 | 80 | 25 | 90 | 70 | 95 | – | – | – | – | – | – | – | – | – | – |
| CCC1c2ccccc2CCN1C(=O)C(Cl)Cl (stereo not drawn) [compound 39] | – | – | – | – | – | – | – | – | – | 25 | 40 | 50 | 85 | 75 | 40 | 90 | 80 | 95 | – |
| CCOC(=O)CNC(c1ccc(Cl)cc1)c1ccc(Cl)cc1 [compound 44] | 65 | 60 | 75 | 65 | 80 | 30 | 85 | 65 | 95 | – | – | – | – | – | – | – | – | – | – |
